{"source": "patent US8785147B2", "about": "“L-threonine analysis method and L-threonine dehydrogenase” (Toyama Prefecture, priority 2010, dated 2014)", "key": {"[1]": {"test_system": "TDH derived from Cupriavidus necator NBRC 102504 (SEQ ID NO: 1) (CnTDH)", "assay": "Substrate specificity of TDH, standard assay", "format": "biochemical", "protocol": "L-threonine oxidation activity was determined by measuring coenzyme NAD^+ reduction at 30° C. and 340 nm. The reaction composition consisted of a total volume of 1 mL and contained L-threonine (final concentration 10 mM), NAD^+ (final concentration 2.5 mM), and glycine-KCl—KOH buffer (100 mM, pH 10.0). The measurement of activity began with the addition of the enzyme. One unit (U) of enzymatic activity was defined as the amount of enzyme producing 1 μmol of NADH per minute under standard conditions.\nTDH was examined using substrates in the form of various L-amino acids, amino alcohols, and alcohols. […]"}, "[2]": {"biological_target": "PfTDH: TDH from Pyrococcus furiosus (Pyrococcus furiosus, UniProt Q8U259)", "sequence (Q8U259 whole entry)": "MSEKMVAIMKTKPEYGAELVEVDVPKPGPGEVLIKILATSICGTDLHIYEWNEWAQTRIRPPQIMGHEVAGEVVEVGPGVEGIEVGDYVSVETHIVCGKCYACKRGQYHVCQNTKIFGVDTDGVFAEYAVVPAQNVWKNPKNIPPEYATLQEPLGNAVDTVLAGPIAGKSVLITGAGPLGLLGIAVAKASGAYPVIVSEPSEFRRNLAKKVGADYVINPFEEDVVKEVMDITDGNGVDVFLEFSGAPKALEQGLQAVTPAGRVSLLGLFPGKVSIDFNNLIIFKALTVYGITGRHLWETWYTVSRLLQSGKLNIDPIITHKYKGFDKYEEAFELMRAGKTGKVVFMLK", "details": "cited from earlier work"}, "[3]": {"test_system": "CyTDH: TDH from Cytophaga sp. KUC-1", "details": "cited from earlier work"}, "[4]": {"test_system": "CsTDH: TDH from Clostridium sticklandii", "details": "cited from earlier work"}, "[5]": {"test_system": "Purified TDH derived from Cupriavidus necator NBRC 102504", "assay": "Effect of metal ions and inhibitors on TDH activity (residual activity)", "format": "biochemical", "details": "for Relative activity (residual TDH activity): metal ions final concentration 1 mM, relative to enzyme without additives"}, "[6]": {"details": "substrate concentration 10 mM, standard assay conditions, L-threonine = 100"}, "[7]": {"details": "substrate specificity, L-threonine = 100"}, "[8]": {"details": "inhibitors final concentration 10 mM, 30° C. for 1 hour, None = 100"}, "[9]": {"details": "inhibitors final concentration 10 mM, 30° C. for 1 hour"}}, "note": "Where two headings read alike, the source gives them in different places.", "data": [{"smiles": "CCC(N)CO", "note": "(racemic) [DL-2-amino1-butanol]", "values": [{"measurement": "Relative activity (%) CnTDH", "setting": "[1]; [6]", "value": 0, "unit": "%"}]}, {"smiles": "C[C@@H](O)[C@H](N)C(=O)O", "note": "(racemic) [DL-threonine]", "values": [{"measurement": "Relative activity (%) CnTDH", "setting": "[1]; [6]", "value": 64, "unit": "%"}]}, {"smiles": "CCC(O)CO", "note": "(stereo not shown) [1,2-Butanediol]", "values": [{"measurement": "Relative activity (%) CnTDH", "setting": "[1]; [6]", "value": 0, "unit": "%"}, {"measurement": "Relative activity (%) PfTDH", "setting": "[2]; [7]", "value": 52, "unit": "%"}]}, {"smiles": "CC(O)CCO", "note": "(stereo not shown) [1,3-Butanediol]", "values": [{"measurement": "Relative activity (%) CnTDH", "setting": "[1]; [6]", "value": 0, "unit": "%"}, {"measurement": "Relative activity (%) PfTDH", "setting": "[2]; [7]", "value": 0, "unit": "%"}]}, {"smiles": "CCCCO", "note": "[1-Butanol]", "values": [{"measurement": "Relative activity (%) CnTDH", "setting": "[1]; [6]", "value": 0, "unit": "%"}, {"measurement": "Relative activity (%) PfTDH", "setting": "[2]", "value": 0, "unit": "%"}]}, {"smiles": "CC(O)C(C)O", "note": "(stereo not shown) [2,3-Butanediol]", "values": [{"measurement": "Relative activity (%) CnTDH", "setting": "[1]; [6]", "value": 0, "unit": "%"}, {"measurement": "Relative activity (%) PfTDH", "setting": "[2]; [7]", "value": 94, "unit": "%"}]}, {"smiles": "CCC(C)O", "note": "(stereo not shown) [2-Butanol]", "values": [{"measurement": "Relative activity (%) CnTDH", "setting": "[1]; [6]", "value": 0, "unit": "%"}, {"measurement": "Relative activity (%) PfTDH", "setting": "[2]", "value": 0, "unit": "%"}, {"measurement": "Relative activity (%) CyTDH", "setting": "[3]; [7]", "value": 0, "unit": "%"}]}, {"smiles": "CC(=O)C(C)O", "note": "(stereo not shown) [Acetoin]", "values": [{"measurement": "Relative activity (%) CnTDH", "setting": "[1]; [6]", "value": 0, "unit": "%"}, {"measurement": "Relative activity (%) PfTDH", "setting": "[2]; [7]", "value": 38, "unit": "%"}, {"measurement": "Relative activity (%) CsTDH", "setting": "[4]; [7]", "value": 0, "unit": "%"}]}, {"smiles": "O=[N+]([O-])[O-].[Ag+]", "note": "[AgNO3]", "values": [{"measurement": "Relative activity (residual TDH activity)", "setting": "[5]; 30° C. for 1 hour", "value": 100, "unit": "%"}]}, {"smiles": "[Cl][Al]([Cl])[Cl]", "note": "[AlCl3]", "values": [{"measurement": "Relative activity (residual TDH activity)", "setting": "[5]; 30° C. for 1 hour", "value": 118, "unit": "%"}]}, {"smiles": "[Ba+2].[Cl-].[Cl-]", "note": "[BaCl2]", "values": [{"measurement": "Relative activity (residual TDH activity)", "setting": "[5]; 30° C. for 1 hour", "value": 113, "unit": "%"}]}, {"smiles": "[Ca+2].[Cl-].[Cl-]", "note": "[CaCl2]", "values": [{"measurement": "Relative activity (residual TDH activity)", "setting": "[5]; 30° C. for 1 hour", "value": 109, "unit": "%"}]}, {"smiles": "[Cl][Cr]([Cl])[Cl]", "note": "[CrCl3]", "values": [{"measurement": "Relative activity (residual TDH activity)", "setting": "[5]; 30° C. for 1 hour", "value": 110, "unit": "%"}]}, {"smiles": "[Cl-].[Cs+]", "note": "[CsCl]", "values": [{"measurement": "Relative activity (residual TDH activity)", "setting": "[5]; 30° C. for 1 hour", "value": 117, "unit": "%"}]}, {"smiles": "[Cl][Cu][Cl]", "note": "[CuCl2]", "values": [{"measurement": "Relative activity (residual TDH activity)", "setting": "[5]; 30° C. for 1 hour", "value": 117, "unit": "%"}]}, {"smiles": "O=S(=O)([O-])[O-].[Cu+2]", "note": "[CuSO4]", "values": [{"measurement": "Relative activity (residual TDH activity)", "setting": "[5]; 30° C. for 1 hour", "value": 115, "unit": "%"}]}, {"smiles": "C[C@@H](O)[C@@H](N)C(=O)O", "note": "[D-allothreonine]", "values": [{"measurement": "Relative activity (%) CnTDH", "setting": "[1]; [6]", "value": 0, "unit": "%"}, {"measurement": "Relative activity (%) CsTDH", "setting": "[4]; [7]", "value": 0, "unit": "%"}, {"measurement": "Relative activity (%) CyTDH", "setting": "[3]; [7]", "value": 0, "unit": "%"}]}, {"smiles": "N[C@H](CO)C(=O)O", "note": "[D-serine]", "values": [{"measurement": "Relative activity (%) CnTDH", "setting": "[1]; [6]", "value": 0, "unit": "%"}]}, {"smiles": "CCOC(=O)OC(=O)OCC", "note": "[DEPC]", "values": [{"measurement": "Relative activity (%) (residual TDH activity)", "setting": "[5]; [8]", "value": 92, "unit": "%"}]}, {"smiles": "O[C@@H](CS)[C@@H](O)CS", "note": "[DTT]", "values": [{"measurement": "Inhibition of TDH activity (in words)", "setting": "[5]; [9]", "value": "Nor did the reducing agents β-mercaptoethanol and DTT inhibit enzymatic activity"}, {"measurement": "Relative activity (%) (residual TDH activity)", "setting": "[5]; [8]", "value": 125, "unit": "%"}]}, {"smiles": "O=C(O)CN(CCN(CC(=O)O)CC(=O)O)CC(=O)O", "note": "[EDTA]", "values": [{"measurement": "Inhibition of TDH activity (in words)", "setting": "[5]; [9]", "value": "not inhibited"}, {"measurement": "Relative activity (%) (residual TDH activity)", "setting": "[5]; [8]", "value": 103, "unit": "%"}]}, {"smiles": "O=C(O)CN(CCOCCOCCN(CC(=O)O)CC(=O)O)CC(=O)O", "note": "[EGTA]", "values": [{"measurement": "Inhibition of TDH activity (in words)", "setting": "[5]; [9]", "value": "not inhibited"}, {"measurement": "Relative activity (%) (residual TDH activity)", "setting": "[5]; [8]", "value": 94, "unit": "%"}]}, {"smiles": "[Cl][Fe][Cl]", "note": "[FeCl2]", "values": [{"measurement": "Relative activity (residual TDH activity)", "setting": "[5]; 30° C. for 1 hour", "value": 68, "unit": "%"}]}, {"smiles": "[Cl][Fe]([Cl])[Cl]", "note": "[FeCl3]", "values": [{"measurement": "Relative activity (residual TDH activity)", "setting": "[5]; 30° C. for 1 hour", "value": 27, "unit": "%"}]}, {"smiles": "OCC(O)CO", "note": "[Glycerol]", "values": [{"measurement": "Relative activity (%) CnTDH", "setting": "[1]; [6]", "value": 0, "unit": "%"}, {"measurement": "Relative activity (%) PfTDH", "setting": "[2]; [7]", "value": 4, "unit": "%"}]}, {"smiles": "NCC(=O)O", "note": "[Glycine]", "values": [{"measurement": "Relative activity (%) CnTDH", "setting": "[1]; [6]", "value": 0, "unit": "%"}, {"measurement": "Relative activity (%) PfTDH", "setting": "[2]", "value": 0, "unit": "%"}, {"measurement": "Relative activity (%) CsTDH", "setting": "[4]; [7]", "value": 0, "unit": "%"}, {"measurement": "Relative activity (%) CyTDH", "setting": "[3]; [7]", "value": 0, "unit": "%"}]}, {"smiles": "[Cl][Hg][Cl]", "note": "[HgCl2]", "values": [{"measurement": "Relative activity (%) (residual TDH activity)", "setting": "[5]", "value": 23, "unit": "%"}]}, {"smiles": "NC(=O)CI", "note": "[Iodoacetamide]", "values": [{"measurement": "Inhibition of TDH activity (in words)", "setting": "[5]; [9]", "value": "inhibited"}, {"measurement": "Relative activity (%) (residual TDH activity)", "setting": "[5]; [8]", "value": 0.8, "unit": "%"}]}, {"smiles": "O=C(O)CI", "note": "[Iodoacetic acid]", "values": [{"measurement": "Relative activity (%) (residual TDH activity)", "setting": "[5]", "value": 48, "unit": "%"}]}, {"smiles": "C[C@H](N)C(=O)O", "note": "[L-alanine]", "values": [{"measurement": "Relative activity (%) CnTDH", "setting": "[1]; [6]", "value": 0, "unit": "%"}, {"measurement": "Relative activity (%) PfTDH", "setting": "[2]; [7]", "value": 0, "unit": "%"}, {"measurement": "Relative activity (%) CsTDH", "setting": "[4]; [7]", "value": 0, "unit": "%"}, {"measurement": "Relative activity (%) CyTDH", "setting": "[3]; [7]", "value": 0, "unit": "%"}]}, {"smiles": "N=C(N)NCCC[C@H](N)C(=O)O", "note": "[L-arginine]", "values": [{"measurement": "Relative activity (%) CnTDH", "setting": "[1]", "value": 0, "unit": "%"}, {"measurement": "Relative activity (%) PfTDH", "setting": "[2]", "value": 0, "unit": "%"}, {"measurement": "Relative activity (%) CsTDH", "setting": "[4]", "value": 0, "unit": "%"}, {"measurement": "Relative activity (%) CyTDH", "setting": "[3]", "value": 0, "unit": "%"}]}, {"smiles": "NC(=O)C[C@H](N)C(=O)O", "note": "[L-asparagine]", "values": [{"measurement": "Relative activity (%) CnTDH", "setting": "[1]; [6]", "value": 0, "unit": "%"}, {"measurement": "Relative activity (%) PfTDH", "setting": "[2]; [7]", "value": 0, "unit": "%"}, {"measurement": "Relative activity (%) CsTDH", "setting": "[4]; [7]", "value": 0, "unit": "%"}, {"measurement": "Relative activity (%) CyTDH", "setting": "[3]; [7]", "value": 0, "unit": "%"}]}, {"smiles": "N[C@@H](CC(=O)O)C(=O)O", "note": "[L-aspartic acid]", "values": [{"measurement": "Relative activity (%) CnTDH", "setting": "[1]; [6]", "value": 0, "unit": "%"}, {"measurement": "Relative activity (%) PfTDH", "setting": "[2]; [7]", "value": 0, "unit": "%"}, {"measurement": "Relative activity (%) CsTDH", "setting": "[4]; [7]", "value": 0, "unit": "%"}, {"measurement": "Relative activity (%) CyTDH", "setting": "[3]; [7]", "value": 0, "unit": "%"}]}, {"smiles": "N[C@@H](CCC(=O)O)C(=O)O", "note": "[L-glutamic acid]", "values": [{"measurement": "Relative activity (%) CnTDH", "setting": "[1]; [6]", "value": 0, "unit": "%"}, {"measurement": "Relative activity (%) PfTDH", "setting": "[2]; [7]", "value": 0, "unit": "%"}, {"measurement": "Relative activity (%) CsTDH", "setting": "[4]; [7]", "value": 0, "unit": "%"}, {"measurement": "Relative activity (%) CyTDH", "setting": "[3]; [7]", "value": 0, "unit": "%"}]}]}
